Legend:
Type in all cases: in vivo
[1] = tested on: johnsongrass (Sorghum halepense); experiment: Test B pre-/postemergence plant response; conditions: Postemergence
Description: (§1) Seeds of plant species selected from blackgrass (Alopecurus myosuroides), downy bromegrass (Bromus tectorum), green foxtail (Setaria viridis), Italian ryegrass (Lolium multiflorum), wheat (Triticum aestivum), wild oat (Avena fatua), deadnettle (henbit deadnettle, Lamium amplexicaule), galium (catchweed bedstraw, Galium aparine), bermudagrass (Cynodon dactylon), Surinam grass (Brachiaria decumbens), cocklebur (Xanthium strumarium), corn (Zea mays), large crabgrass (Digitaria sanguinalis), woolly cupgrass (Eriochloa villosa), giant foxtail (Setaria faberii), goosegrass (Eleusine indica), johnsongrass (Sorghum halepense), kochia (Kochia scoparia), lambsquarters (Chenopodium album), morningglory (Ipomoea coccinea), nightshade (eastern black nightshade, Solanum ptycanthum), yellow nutsedge (Cyperus esculentus), pigweed (Amaranthus retroflexus), ragweed (common ragweed, Ambrosia elatior), Russian thistle (Salsola kali), soybean (Glycine max), sunflower (common oilseed sunflower, Helianthus annuus) and velvetleaf (Abutilon theophrasti) were planted into a blend of loam soil and sand and treated preemergence with test compounds formulated in a non-phytotoxic solvent mixture which included a surfactant.
(§2) At the same time, plants selected from these crop and weed species and also winter barley (Hordeum vulgare), canarygrass (Phalaris minor), chickweed (Stellaria media) and windgrass (Apera spica-venti) were planted in pots containing Redi-Earth® planting medium (Scotts Company, 14111 Scottslawn Road, Marysville, Ohio 43041) comprising spaghnum peat moss, vermiculite, wetting agent and starter nutrients and treated with postemergence applications of some of the test chemicals formulated in the same manner. Plants ranged in height from 2 to 18 cm (1- to 4-leaf stage) for postemergence treatments.
(§3) Treated plants and controls were maintained in a greenhouse for 13 to 15 days, after which time all treated plants were visually evaluated and compared to controls. Plant response ratings, summarized in Table B, are based on a scale of 0 to 100 where 0 is no effect and 100 is complete control. A dash (-) response means no test result.

[2] = tested on: downy bromegrass (Bromus tectorum); experiment: Test B pre-/postemergence plant response; conditions: for Plant response rating, Bromegrass, Downy: Postemergence
Description: as §1, §2, §3

[3] = tested on: morningglory (Ipomoea coccinea); experiment: Test B pre-/postemergence plant response; conditions: Postemergence
Description: as §1, §2, §3

[4] = tested on: blackgrass (Alopecurus myosuroides); experiment: Test B pre-/postemergence plant response; conditions: for Plant response rating, Blackgrass: Postemergence
Description: as §1, §2, §3

[5] = tested on: wheat (Triticum aestivum); experiment: Test B pre-/postemergence plant response; conditions: Postemergence
Description: as §1, §2, §3

[6] = tested on: Italian ryegrass (Lolium multiflorum); experiment: Test B pre-/postemergence plant response; conditions: Postemergence
Description: as §1, §2, §3

[7] = tested on: velvetleaf (Abutilon theophrasti); experiment: Test B pre-/postemergence plant response; conditions: Postemergence
Description: as §1, §2, §3

[8] = tested on: pigweed (Amaranthus retroflexus); experiment: Test B pre-/postemergence plant response; conditions: Postemergence
Description: as §1, §2, §3

corn (Zea mays) = experiment: Test B pre-/postemergence plant response; conditions: Postemergence
Description: as §1, §2, §3

[9] = tested on: giant foxtail (Setaria faberii); experiment: Test B pre-/postemergence plant response; conditions: Postemergence
Description: as §1, §2, §3

[10] = tested on: green foxtail (Setaria viridis); experiment: Test B pre-/postemergence plant response; conditions: Postemergence
Description: as §1, §2, §3

soybean (Glycine max) = experiment: Test B pre-/postemergence plant response; conditions: Postemergence
Description: as §1, §2, §3

[11] = tested on: goosegrass (Eleusine indica); experiment: Test B pre-/postemergence plant response; conditions: Postemergence
Description: as §1, §2, §3

[12] = tested on: ragweed (common ragweed, Ambrosia elatior); experiment: Test B pre-/postemergence plant response; conditions: Postemergence
Description: as §1, §2, §3

[13] = tested on: bermudagrass (Cynodon dactylon); experiment: Test B pre-/postemergence plant response; conditions: for Plant response rating, Bermudagrass: Postemergence
Description: as §1, §2, §3

[14] = tested on: chickweed (Stellaria media); experiment: Test B postemergence plant response; conditions: Postemergence
Summary of the method: (§4)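 Plants grown in peat/vermiculite medium were sprayed postemergence at 2–18 cm height (1- to 4-leaf stage). After 13–15 days in the greenhouse, response was rated visually against untreated controls on a 0–100 scale (0 no effect, 100 complete control).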

[15] = tested on: canarygrass (Phalaris minor); experiment: Test B postemergence plant response; conditions: Postemergence
Summary of the method: as §4

[16] = tested on: winter barley (Hordeum vulgare); experiment: Test B postemergence plant response; conditions: for Plant response rating, Barley: Postemergence
Summary of the method: as §4

[17] = 31 g ai/ha, 0 to 100 scale (0 no effect, 100 complete control)
[18] = 125 g ai/ha, scale 0 to 100 (0 no effect, 100 complete control)
[19] = 62 g ai/ha, postemergence, 0 is no effect, 100 is complete control, 13 to 15 days

O=C1CCCC(O)=C1C(=O)c1cnc(-c2ccccc2)n(C2CC[S+]([O-])CC2)c1=O (mixture of isomers) [Compound 169, 5-[(2-hydroxy-6-oxo-1-cyclohexen-1-yl)carbonyl]-2-phenyl-3-(trans/cis-tetrahydro-1-oxido-2H-thiopyran-4-yl)-4(3H)-pyrimidinone]
Plant response rating, Johnsongrass ([1]; 16 g ai/ha, 0 to 100 scale): 40 | Plant response rating, Johnsongrass [1, 17]: 60 | Plant response rating, Johnsongrass [1, 18]: 65 | Plant response rating, Bromegrass, Downy ([2]; 16 g ai/ha, 0 to 100 scale): 0 | Bromegrass, Downy plant response rating (0 to 100 scale) [2, 19]: 40 | Plant response rating, Bromegrass, Downy [2, 17]: 10 | Plant response rating, Bromegrass, Downy [2, 18]: 90 | Plant response rating, Morningglory ([3]; 16 g ai/ha, 0 to 100 scale): 95 | Plant response rating, Morningglory [3, 17]: 95 | Plant response rating, Morningglory [3, 18]: 100 | Plant response rating, Blackgrass ([4]; 16 g ai/ha, 0 to 100 scale): 0 | Blackgrass plant response rating (0 to 100 scale) [4, 19]: 5 | Plant response rating, Blackgrass [4, 17]: 5 | Plant response rating, Blackgrass [4, 18]: 10 | Plant response rating, Wheat ([5]; 16 g ai/ha, 0 to 100 scale): 0 | Plant response rating, Wheat [5, 17]: 0 | Plant response rating, Wheat [5, 18]: 5 | Plant response rating, Ryegrass, Italian ([6]; 16 g ai/ha, 0 to 100 scale): 0 | Plant response rating, Ryegrass, Italian [6, 17]: 0 | Plant response rating, Ryegrass, Italian [6, 18]: 10 | Plant response rating, Velvetleaf ([7]; 16 g ai/ha, 0 to 100 scale): 75 | Plant response rating, Velvetleaf [7, 17]: 100 | Plant response rating, Velvetleaf [7, 18]: 100 | Plant response rating, Pigweed ([8]; 16 g ai/ha, 0 to 100 scale): 90 | Plant response rating, Pigweed [8, 17]: 100 | Plant response rating, Pigweed [8, 18]: 100 | Plant response rating, Corn (corn (Zea mays); 16 g ai/ha, 0 to 100 scale): 20 | Plant response rating, Corn (corn (Zea mays); [17]): 45 | Plant response rating, Corn (corn (Zea mays); [18]): 55 | Plant response rating, Foxtail, Giant ([9]; 16 g ai/ha, 0 to 100 scale): 75 | Plant response rating, Foxtail, Giant [9, 17]: 95 | Plant response rating, Foxtail, Giant [9, 18]: 100 | Plant response rating, Foxtail, Green ([10]; 16 g ai/ha, 0 to 100 scale): 45 | Plant response rating, Foxtail, Green [10, 17]: 60 | Plant response rating, Foxtail, Green [10, 18]: 95 | Plant response rating, Soybean (soybean (Glycine max); 16 g ai/ha, 0 to 100 scale): 55 | Plant response rating, Soybean (soybean (Glycine max); [17]): 90 | Plant response rating, Soybean (soybean (Glycine max); [18]): 95 | Plant response rating, Goosegrass ([11]; 16 g ai/ha, 0 to 100 scale): 80 | Plant response rating, Goosegrass [11, 17]: 95 | Plant response rating, Goosegrass [11, 18]: 100 | Plant response rating, Ragweed ([12]; 16 g ai/ha, 0 to 100 scale): 98 | Plant response rating, Ragweed [12, 17]: 100 | Plant response rating, Ragweed [12, 18]: 100 | Plant response rating, Bermudagrass ([13]; 16 g ai/ha, 0 to 100 scale): 70 | Bermudagrass plant response rating (0 to 100 scale) [13, 19]: 75 | Plant response rating, Bermudagrass [13, 17]: 70 | Plant response rating, Bermudagrass [13, 18]: 100 | Plant response rating, Chickweed ([14]; 16 g ai/ha, 0 to 100 scale): 90 | Plant response rating, Chickweed [14, 17]: 100 | Plant response rating, Chickweed [14, 18]: 100 | Plant response rating, Canarygrass ([15]; 16 g ai/ha, 0 to 100 scale): 5 | Plant response rating, Canarygrass [15, 17]: 40 | Plant response rating, Canarygrass [15, 18]: 80 | Plant response rating, Barley ([16]; 16 g ai/ha, 0 to 100 scale): 0 | Barley plant response rating (0 to 100 scale) [16, 19]: 0 | Plant response rating, Barley [16, 17]: 0 | Plant response rating, Barley [16, 18]: 0

Source: patent publication US8952024B2, “Herbicidal pyrimidone derivatives” (E I du Pont de Nemours and Company, priority 2009, dated 2015)
